Experimental data reported in the NIST ThermoML archive (doi:10.1016/j.jct.2013.12.025).

Assay: refractive index (Na D-line) (dimensionless); xn = mol fraction of the nth substance listed
Settings: 101 kPa, Liquid, Standard Abbe refractometry

C=C[Si](C)(C)O[Si](C)(C)C=C [1,3-diethenyl-1,1,3,3-tetramethyldisiloxane] + COc1ccccc1
refractive index
Settings | 283.15 K | 288.15 K | 293.15 K | 298.15 K | 303.15 K
x1 = 0.0501 | 1.51284 | 1.51027 | 1.50766 | 1.50499 | 1.50234
x1 = 0.1 | 1.50406 | 1.5015 | 1.49885 | 1.49617 | 1.49356
x1 = 0.15 | 1.49596 | 1.49337 | 1.49073 | 1.48807 | 1.48543
x1 = 0.2004 | 1.48841 | 1.48578 | 1.48317 | 1.48051 | 1.47786
x1 = 0.2499 | 1.48153 | 1.47893 | 1.47631 | 1.47362 | 1.47098
x1 = 0.3 | 1.47505 | 1.47247 | 1.46982 | 1.46716 | 1.4645
x1 = 0.35 | 1.46908 | 1.46651 | 1.46384 | 1.46116 | 1.45851
x1 = 0.3997 | 1.46353 | 1.46092 | 1.45829 | 1.4556 | 1.45295
x1 = 0.4499 | 1.45831 | 1.45568 | 1.45303 | 1.45034 | 1.4477
x1 = 0.5001 | 1.45338 | 1.45077 | 1.44813 | 1.44544 | 1.44279
x1 = 0.5499 | 1.44883 | 1.4462 | 1.44358 | 1.44089 | 1.43823
x1 = 0.6 | 1.4445 | 1.44188 | 1.43925 | 1.43657 | 1.43393
x1 = 0.6499 | 1.44046 | 1.43782 | 1.43521 | 1.43252 | 1.42986
x1 = 0.6999 | 1.43664 | 1.43403 | 1.43139 | 1.4287 | 1.42604
x1 = 0.7499 | 1.43304 | 1.43043 | 1.42778 | 1.4251 | 1.42244
x1 = 0.8 | 1.42961 | 1.42699 | 1.42434 | 1.42166 | 1.41901
x1 = 0.8499 | 1.42639 | 1.42377 | 1.42112 | 1.41846 | 1.4158
x1 = 0.8998 | 1.42333 | 1.4207 | 1.41806 | 1.4154 | 1.41277
x1 = 0.9499 | 1.42042 | 1.41779 | 1.41515 | 1.41251 | 1.40987
x1 = 1 | 1.41766 | 1.415 | 1.41236 | 1.4097 | 1.40707

C=C[Si](C)(C)O[Si](C)(C)C=C [1,3-diethenyl-1,1,3,3-tetramethyldisiloxane] + Clc1ccccc1
refractive index
Settings | 283.15 K | 288.15 K | 293.15 K | 298.15 K | 303.15 K
x1 = 0.05 | 1.51909 | 1.51642 | 1.51366 | 1.51088 | 1.50802
x1 = 0.0998 | 1.50933 | 1.5066 | 1.50385 | 1.50103 | 1.49821
x1 = 0.15 | 1.50029 | 1.49759 | 1.49487 | 1.492 | 1.48923
x1 = 0.1996 | 1.49216 | 1.48946 | 1.48671 | 1.48389 | 1.48103
x1 = 0.25 | 1.4846 | 1.48187 | 1.47913 | 1.47637 | 1.47349
x1 = 0.2999 | 1.47766 | 1.47495 | 1.47223 | 1.46943 | 1.46663
x1 = 0.35 | 1.47122 | 1.46854 | 1.46582 | 1.46303 | 1.46019
x1 = 0.3999 | 1.46527 | 1.46262 | 1.4599 | 1.45712 | 1.45432
x1 = 0.4496 | 1.45981 | 1.45712 | 1.45441 | 1.45167 | 1.44883
x1 = 0.4999 | 1.45464 | 1.45197 | 1.44926 | 1.4465 | 1.4437
x1 = 0.5499 | 1.44985 | 1.44716 | 1.44446 | 1.4417 | 1.43891
x1 = 0.6 | 1.44533 | 1.44268 | 1.43999 | 1.43722 | 1.43446
x1 = 0.6469 | 1.44138 | 1.4387 | 1.43603 | 1.43329 | 1.43053
x1 = 0.6998 | 1.43721 | 1.43455 | 1.43185 | 1.42911 | 1.42638
x1 = 0.7499 | 1.43345 | 1.4308 | 1.42812 | 1.42542 | 1.4227
x1 = 0.7997 | 1.42994 | 1.42729 | 1.42463 | 1.42193 | 1.41923
x1 = 0.8499 | 1.42661 | 1.42395 | 1.42129 | 1.41862 | 1.41593
x1 = 0.8996 | 1.4235 | 1.42083 | 1.41817 | 1.4155 | 1.41283
x1 = 0.9497 | 1.4205 | 1.41785 | 1.4152 | 1.41257 | 1.40991
x1 = 1 | 1.41767 | 1.415 | 1.41237 | 1.40973 | 1.40708
